Source: patent US20080234245A1, “Angiostatic Agents for Controlling Choroidal Neovascularisation After Ocular Surgery or Trauma” (priority 2004, published 2008)

Tests used:
[1] = tested on: posterior segment neovascularization (NV); details: intravitreal injection, rat OIR model (Penn 2001); cited from earlier work
[2] = Clark 1999; cited from earlier work
[3] = tested on: choroidal neovascularization (CNV) in C57BL/J mice; assay: Laser-induced choroidal neovascularization (CNV) in mice, rupture of Bruch's membrane; format: in vivo, mouse; details: for CNV versus vehicle-injected controls: single 5 μl intravitreal injection, 14 days post-laser
Description: Choroidal neovascularization (CNV) was induced in C57BL/J mice by rupturing Bruch's membrane via focal laser photocoagulation (FIG. 3). (Tobe T, et al., AM. J. PATHOL., 153:1641-1646 (1998)). Three to four retinal burns were placed in randomly assigned eye using the Alcon 532 nm EyeLite laser (75 μm spot size, 0.1 seconds duration, 120 mW) with a slit lamp delivery system. The laser burns were used to generate a rupture in Bruch's membrane, which was indicated opthalmoscopically by the formation of a bubble under the retina. Only mice with laser burns that produced three bubbles per eye were included in the study. Burns were typically placed at the 3, 6, 9 or 12 o'clock positions in the posterior pole of the retina, avoiding the branch retinal arteries and veins.
Each mouse was randomly assigned into one of the following treatment groups after laser: noninjected controls, sham-injected controls, vehicle-injected mice, or one of three anecortave acetate-injected groups. Control mice received laser photocoagulation in both eyes, where one eye received a sham injection, i.e. a pars plana needle puncture. For intravitreal-injected animals, one laser-treated eye received a 5 μl intravitreal injection of 0%, 0.1%, 1%, or 10% anecortave acetate. The intravitreal injection was performed immediately after laser photocoagulation.
Fourteen days post-laser, all mice were euthanized and systemically perfused with fluorescein-labeled dextran. Eyes were then harvested and prepared as choroidal flat mounts, and the 2-dimensional CNV area was quantified with computerized digital analysis, (Mori K., et al., AM. J. PATHOL. 159:313-320 (2001)). The median CNV area/burn per mouse per treatment was used for statistical analysis; P≦0.05 was considered significant.

Compound: CC(=O)OCC(=O)[C@@]1(O)CC[C@H]2[C@@H]3CCC4=CC(=O)CC[C@]4(C)C3=CC[C@@]21C [anecortave acetate, 4,9(11)-pregnadien-17α,21-diol-3,20-dione-21-acetate]
- efficacy against posterior segment neovascularization (NV) [1]: reproducible efficacy
- conventional glucocorticoid (anti-inflammatory) or mineralocorticoid activity [2]: devoid of conventional glucocorticoid (anti-inflammatory) or mineralocorticoid activity
- CNV versus vehicle-injected controls ([3]; 0.1% anecortave acetate): No difference
- CNV versus vehicle-injected controls ([3]; 1% anecortave acetate): No difference
- CNV development seen as hyperfluorescent area at the site of laser photocoagulation (FIG. 4) ([3]; 10% anecortave acetate versus controls, choroidal flat mounts, fluorescein-labeled dextran): gross reduction in CNV development
- effect on laser-induced choroidal neovascularization (FIG. 5) ([3]; single intravitreal injection in the mouse): inhibits laser-induced choroidal neovascularization
